Key:
[1] = target: T1, α1β2γ2 GABAA receptor (Mus musculus, UniProt P22723+P62812+P63137); test: two-electrode voltage clamp in Xenopus oocytes; potentiation of currents induced by […] GABA; type: cell-based
T1 construct: gene Gabra1; murine α1, β2, and γ2 GABAA subunits expressed in Xenopus laevis oocytes; with GABAA receptor β2 (Gabrb2) and γ2 (Gabrg2) subunits

[2] = target: T2, rat ASIC1a (rASIC1a) (Rattus norvegicus, UniProt P55926); test: two-electrode voltage clamp in Xenopus oocytes; inhibition of pH […].0-induced currents; type: cell-based
T2 construct: gene Asic1; homomeric rat ASIC1a expressed in Xenopus laevis oocytes
T2 sequence (P55926 1-526): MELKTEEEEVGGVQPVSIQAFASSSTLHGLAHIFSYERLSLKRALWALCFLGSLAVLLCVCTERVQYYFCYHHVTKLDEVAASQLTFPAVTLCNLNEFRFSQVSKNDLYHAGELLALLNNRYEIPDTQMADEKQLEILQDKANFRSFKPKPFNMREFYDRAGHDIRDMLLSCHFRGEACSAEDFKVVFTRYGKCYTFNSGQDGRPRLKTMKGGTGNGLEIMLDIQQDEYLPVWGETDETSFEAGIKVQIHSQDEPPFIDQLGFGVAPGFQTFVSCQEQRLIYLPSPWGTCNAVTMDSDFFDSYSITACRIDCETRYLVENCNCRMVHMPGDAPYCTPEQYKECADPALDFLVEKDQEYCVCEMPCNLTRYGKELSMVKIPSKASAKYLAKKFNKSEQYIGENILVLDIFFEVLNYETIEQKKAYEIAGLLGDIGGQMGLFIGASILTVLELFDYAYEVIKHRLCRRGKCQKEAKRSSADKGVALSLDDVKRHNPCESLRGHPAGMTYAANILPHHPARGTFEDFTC

T1 sequence (P62812 28-455): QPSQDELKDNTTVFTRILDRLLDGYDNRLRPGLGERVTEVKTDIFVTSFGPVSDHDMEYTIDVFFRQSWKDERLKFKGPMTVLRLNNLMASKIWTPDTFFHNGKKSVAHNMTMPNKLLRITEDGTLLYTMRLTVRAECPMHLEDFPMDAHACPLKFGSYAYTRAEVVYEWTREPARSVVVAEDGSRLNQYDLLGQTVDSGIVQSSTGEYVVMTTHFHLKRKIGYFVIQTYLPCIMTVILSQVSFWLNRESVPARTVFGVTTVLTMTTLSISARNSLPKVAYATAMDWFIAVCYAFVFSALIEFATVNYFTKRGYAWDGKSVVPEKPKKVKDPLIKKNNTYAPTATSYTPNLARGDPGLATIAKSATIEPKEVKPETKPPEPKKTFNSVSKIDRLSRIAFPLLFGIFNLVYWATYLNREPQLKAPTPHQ
T1 sequence (P63137 26-512): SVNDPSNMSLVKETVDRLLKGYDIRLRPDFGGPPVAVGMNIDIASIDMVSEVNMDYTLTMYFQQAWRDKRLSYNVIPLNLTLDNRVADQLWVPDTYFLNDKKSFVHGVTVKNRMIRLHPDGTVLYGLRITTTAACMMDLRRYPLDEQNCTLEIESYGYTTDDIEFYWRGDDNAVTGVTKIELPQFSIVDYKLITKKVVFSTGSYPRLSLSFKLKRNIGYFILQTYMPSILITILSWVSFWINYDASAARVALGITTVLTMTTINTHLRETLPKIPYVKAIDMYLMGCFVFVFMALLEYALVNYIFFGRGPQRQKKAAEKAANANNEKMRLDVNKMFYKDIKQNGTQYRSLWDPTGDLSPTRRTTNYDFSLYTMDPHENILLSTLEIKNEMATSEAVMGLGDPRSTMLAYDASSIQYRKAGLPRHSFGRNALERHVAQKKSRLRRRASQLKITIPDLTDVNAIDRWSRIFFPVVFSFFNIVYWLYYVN
T1 sequence (P22723 39-474): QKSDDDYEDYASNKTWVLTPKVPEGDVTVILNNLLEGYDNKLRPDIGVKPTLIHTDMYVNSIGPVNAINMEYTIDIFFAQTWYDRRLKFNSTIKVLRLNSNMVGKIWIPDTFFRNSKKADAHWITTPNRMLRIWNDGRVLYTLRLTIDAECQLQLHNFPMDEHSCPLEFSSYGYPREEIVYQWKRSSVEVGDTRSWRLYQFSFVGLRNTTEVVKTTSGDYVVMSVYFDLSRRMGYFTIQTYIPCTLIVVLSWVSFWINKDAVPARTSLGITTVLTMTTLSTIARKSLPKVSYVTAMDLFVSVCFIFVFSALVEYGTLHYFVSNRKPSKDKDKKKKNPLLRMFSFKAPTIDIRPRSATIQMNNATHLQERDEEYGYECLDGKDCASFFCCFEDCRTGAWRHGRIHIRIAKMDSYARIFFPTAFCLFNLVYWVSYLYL

Q: Which results are given for `O=C(O)C[C@H](C(=O)O)[C@H](OC(=O)[C@@H]1C(C(=O)O[C@@H](C(=O)O)[C@@H](CC(=O)O)C(=O)O)=Cc2cc(O)c(O)cc2[C@H]1c1ccc(O)c(O)c1)C(=O)O` [sevanol]?
A: EC50 [1]: 0.56 ± 0.04 µM; IC50 [2]: 198 ± 19 µM

Source: paper PMC10487430, “Dual Modulator of ASIC Channels and GABAA Receptors from Thyme Alters Fear-Related Hippocampal Activity” (International Journal of Molecular Sciences, 2023)
